# From US12016864B2, “LOX enzyme inhibiting methods and compositions” (ANOVIA BIOSCIENCES, INC., priority 2021, dated 2024)
# Target: T1, Bovine lysyl oxidase (LOX) (Bos taurus, UniProt P33072)
# T1 construct: from tissue; host or cells: adult bovine tendon
# T1 sequence (P33072 170-418): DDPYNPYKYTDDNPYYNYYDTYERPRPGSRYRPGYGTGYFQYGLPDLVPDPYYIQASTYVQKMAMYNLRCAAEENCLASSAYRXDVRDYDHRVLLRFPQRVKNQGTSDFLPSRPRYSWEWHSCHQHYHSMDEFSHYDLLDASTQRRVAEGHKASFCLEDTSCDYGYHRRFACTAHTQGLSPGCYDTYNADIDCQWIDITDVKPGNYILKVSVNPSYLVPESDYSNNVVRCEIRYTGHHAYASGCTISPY
# Assay: LOX inhibition assay, fluorometric (cadaverine / HRP / Amplex Red)
# Type: biochemical
# Settings: LOX extracted from bovine tendon; 30 min preincubation at 37° C.; 5 mM cadaverine; read-out: Activity Range LOX
# Procedure: The ability of compounds to inhibit prototypic LOX was determined using a fluorometric assay. This assay measures the activity of lysyl oxidases by coupling the reaction with horseradish peroxidase-catalyzed […]. The activity assay protocol uses cadaverine as substrate that releases hydrogen peroxide upon transformation by prototypic LOX enzyme present in the sample. Hydrogen peroxide was in turn detected using a red fluorescence substrate for HRP-coupled reactions (Amplex Red Enzyme Assays, Thermo Scientific Fisher). This lead to an increase in fluorescence that can be easily detected at Ex/Em=540/590 nm in a fluorescence microplate
# Bovine lysyl oxidase (LOX) was extracted by adapting the methodology from [Kagan et al. 1979 and Borel et al. 2001.] from bovine tendon: Frozen adult bovine tendon was placed in room temperature water to defrost, and then membranes were removed and the remaining tissue cut into 1 cm pieces. The material was first passed through a course mesh meat grinder, and this mince was passed through a fine mesh grinder. The mince was homogenized in 10 v/w of buffer (16 mM sodium phosphate buffer pH 7.8, 400 mM NaCl) using a Waring blender. The homogenate was centrifuged at 15,000×g for 15 min at 4° C. After centrifugation, the supernatant was discarded and the pellets resuspended in 10 volumes of the same buffer. The mixture was blended again and centrifuged with the same settings. This time the pellets were blended in 3 volumes of extraction buffer (16 mM sodium phosphate buffer pH 7.8) and left to incubate at 4° C. for 2 h. After this time, the slurry was centrifuged with the same settings as described above. The supernatant was used in an ultrafiltration step to remove large proteins by size exclusion through a 30 kDalton filter (EMD Millipore). The filtrate was mixed with DEAE Sephadex (GE Healthcare), or passed over a MonoQ FPLC column. After two washes, one in 16 mM sodium phosphate buffer pH 7.8, 380 mM NaCl, and another in 16 mM sodium phosphate buffer pH 7.8, the proteins were eluted with 16 mM sodium phosphate pH 7.8, 10 μM CuSO4, and 4 M urea. Fractions containing Lox activity were collected and stored frozen at −70° C.
# Final concentration in the LOX assay is shown in Table 6 below and performed in a total volume of […].
# 7 μl of freshly prepared reaction buffer were delivered to reaction wells. Compounds were resuspended in 100% DMSO at 10 mM and delivered into buffer using acoustic technology (Echo550; nanoliter range). A 2.85× solution of LOX protein in reaction buffer was prepared (“LOX solution”) and 7 μl of LOX solution was added into the reaction wells. Buffer only was added to column 1 for no protein control. Reactions were incubated for 30 minutes at 37° C. A 3.33× mixture of cadaverine, Amplex Red, and HRP (“Substrate/Detection Mix) was prepared and subsequently 6 μL of the mixture was added to each reaction well. Progress of reactions was monitored for 120 minutes at 37° C. using Clariostar plate reader (ex530-12, ems 600-40). For all activity assays, pan-LOX inhibitor CCT365623 (Tang et al, 2017) and LOXL2/LOXL3 inhibitor PAT-1251 (PharmaKea) were included as standards.
# The slope of the linear portion of the progress curve was calculated using Clariostar software. Typical analysis interval was between 20-50 min, but varied between experiments. The background subtracted signals (No protein wells were considered as background) were converted to % activity relative to DMSO controls. Data was analyzed using GraphPad Prism 4 with “sigmoidal dose-response (variable slope)”; 4 parameters with Hill Slope. Constraints: Bottom=Constant equal to 0. Top=Must be less than 120.
row,IC50 [nM],SMILES
1,1000 to 30000,"NCc1ccnc(S(=O)(=O)C[C@@H]2C[C@H](c3ccccc3)CN2S(=O)(=O)N2CCOCC2)c1 (racemic) [Example 195, Cis-(2-(((1-(Morpholinosulfonyl)-4-phenylpyrrolidin-2-yl)methyl)sulfonyl)pyridin-4-yl)methanamine 2,2,2-trifluoroacetate]"
2,1000 to 30000,"NCc1ccnc(S(=O)(=O)C[C@@H]2C[C@H](c3ccccc3)CN2S(=O)(=O)N2CCS(=O)(=O)CC2)c1 (racemic) [Example 196, cis-4-((2-(((4-(Aminomethyl)pyridin-2-yl)sulfonyl)methyl)-4-phenylpyrrolidin-1-yl)sulfonyl)thiomorpholine 1,1-dioxide 2,2,2-trifluoroacetate]"
3,1000 to 30000,"NCc1ccnc(S(=O)(=O)C[C@H]2C[C@@H](c3ccccc3)CN2S(=O)(=O)N2CCOCC2)c1 (single isomer, unassigned) [Example 195A]"
4,1000 to 30000,"NCc1ccnc(S(=O)(=O)C[C@@H]2C[C@H](c3ccccc3)CN2S(=O)(=O)N2CCOCC2)c1 (single isomer, unassigned) [Example 195B]"
5,500 to 1000,"NCc1ccnc(S(=O)(=O)C[C@@H]2C[C@H](c3ccccc3)CN2S(=O)(=O)N2CCS(=O)(=O)CC2)c1 [Example 196A, 4-(((2S,4R)-2-(((4-(aminomethyl)pyridin-2-yl)sulfonyl)methyl)-4-phenylpyrrolidin-1-yl)sulfonyl)thiomorpholine 1,1-dioxide 2,2,2-trifluoroacetate]"
6,500 to 1000,"NCc1ccnc(S(=O)(=O)C[C@H]2C[C@@H](c3ccccc3)CN2S(=O)(=O)N2CCS(=O)(=O)CC2)c1 [Example 196B, 4-(((2R,4S)-2-(((4-(aminomethyl)pyridin-2-yl)sulfonyl)methyl)-4-phenylpyrrolidin-1-yl)sulfonyl)thiomorpholine 1,1-dioxide 2,2,2-trifluoroacetate]"
